Data on one substance can be found in patent publication US8445444B2, “Compositions and methods for diagnosing, treating, and preventing prostate conditions” (Phigenix, Inc., priority 2007, dated 2013).

Common to all, as to type: cell-based, human
In assay [1] the test system is LNCaP. In words: Phase contrast microscopy of cell growth. The conditions noted are these: 48 h DEFB1 induction. As to the method: (§1) Microscopic Analysis: Cell morphology was analyzed by phase contrast microscopy. DU145, PC3 and LNCaP cells containing no vector, empty plasmid or DEFB1 plasmid were seeded onto 6 well culture plates (BD Falcon, USA). The following day plasmid-containing cells were induced for a period of 48 h with media containing 10 μM Ponasterone A, while control cells received fresh media. The cells were then viewed under an inverted Zeiss IM 35 microscope (Carl Zeiss, Germany). Phase contrast pictures of a field of cells were obtained using the SPOT Insight Mosaic 4.2 camera (Diagnostic Instruments, USA). Cells were examined by phase contrast microscopy under 32× magnification and digital images were stored as uncompressed TIFF files and exported into Photoshop CS software (Adobe Systems, San Jose, Calif.) for image processing and hard copy presentation.
(§2) Phase Contrast Microscopy: The effect of PAX2 knock-down on cell growth was analyzed by phase contrast microscopy. Here, 1-2×10^4 cells were seeded onto 6 well culture plates (BD Falcon, USA). The following day cells were treated with media only, negative control non-specific siRNA or PAX2 siRNA and allowed to incubate for six days. The cells were then viewed under an inverted Zeiss IM 35 microscope (Carl Zeiss, Germany) at 32× magnification. Phase contrast pictures of a field of cells were obtained using the SPOT Insight Mosaic 4.2 camera (Diagnostic Instruments, USA).
(§3) Phase contrast microscopy: The effect of PAX2 knockdown on cell number was analyzed by phase contrast microscopy. Here, 1-2×10^4 cells were seeded overnight onto six-well culture plates (BD Falcon, USA). Next the cells were treated with media only, negative control non-specific siRNA or PAX2 siRNA and allowed to incubate for 6 days. The cells were then viewed under an inverted Zeiss IM 35 microscope (Carl Zeiss, Germany). Phase contrast pictures of a field of cells were obtained using the SPOT Insight Mosaic 4.2 camera (Diagnostic Instruments, USA).

In assay [2] the test system is PC3. Nature of the assay: Phase contrast microscopy of cell growth. The following applies: PC3, 48 h DEFB1 induction. The method, then: as §1, §2, §3
In assay [3] the test system is DU145. Nature of the assay: Phase contrast microscopy of cell growth. The following applies: DU145, 48 h DEFB1 induction. As to the method:
as §1, §2, §3

Assay [4] concerns LNCaP. Nature of the assay: Acridine orange/ethidium bromide membrane integrity. The following applies: 48 h hBD-1 induction. The method, then: (§4) Analysis of Membrane Permeability: Acridine orange (AO)/ethidium bromide (EtBr) dual staining was performed to identify changes in cell membrane integrity, as well as apoptotic cells by staining the condensed chromatin. AO stains viable cells as well as early apoptotic cells, whereas EtBr stains late stage apoptotic cells that have lost […]. Briefly, cells were seeded into 2 chamber culture slides (BD Falcon, USA). Cells transfected with empty pIND plasmid/pvgRXR or pIND DEFB1/pvgRXR were induced for 24 or 48 h with media containing 10 μM Ponasterone A. Control cells were provided fresh media at 24 and 48 h. In order to determine the effect of PAX2 inhibition on membrane integrity, separate culture slides containing DU145, PC3 and LNCaP were treated with PAX2 siRNA and incubated for 4 days. Following this, cells were washed once with PBS and stained with 2 ml of a mixture (1:1) of AO (Sigma, USA) and EtBr (Promega, USA) (5 ug/ml) solution for 5 min. Following staining, the cells were again washed with PBS. Fluorescence was viewed by a Zeiss LSM 5 Pascal Vario 2 Laser Scanning Confocal Microscope (Carl Zeiss Jena, Germany). The excitation color wheel contain BS505-530 (green) and LP560 (red) filter blocks which allowed for the separation of emitted green light from AO into the green channel and red light from EtBr into the red channel. The laser power output and gain control settings within each individual experiment were identical between control and DEFB1 induced cells. The excitation was provided by a Kr/Ar mixed gas laser at wavelengths of 543 nm for AO and 488 nm for EtBr. Slides were analyzed under 40× magnification and digital images were stored as uncompressed TIFF files and exported into Photoshop CS software (Adobe Systems, San Jose, Calif.) for image processing and hard copy presentation.
(§5) Analysis of membrane integrity: Acridine orange (AO)/ethidium bromide (EtBr) dual staining was performed to identify changes in cell membrane integrity, as well as apoptotic cells by staining the condensed chromatin. AO stains viable cells and early apoptotic cells, whereas EtBr stains late stage apoptotic cells that have compromised membranes. Briefly, PC3, DU145 and LNCaP cells were seeded into 2-chamber culture slides (BD Falcon). Cells transfected with empty plasmid or hBD-1 plasmid were induced for 24 or 48 h with media containing 10 μM Pon A, while control cells received fresh growth media at each time point. After induction, cells were washed once with PBS and stained with 2 ml of a mixture (1:1) of AO (Sigma, St. Louis, Mo.) and EtBr (Promega) (5 μg/ml) solution for 5 min and were again washed with PBS.
(§6) Fluorescence was viewed by a Zeiss LSM 5 Pascal Vario 2 Laser Scanning Confocal Microscope (Carl Zeiss). The excitation color wheel contains BS505-530 (green) and LP560 (red) filter blocks which allowed for the separation of emitted green light from AO into the green channel and red light from EtBr into the red channel. The laser power output and gain control settings within each individual experiment were identical between control and hBD-1 induced cells. The excitation was provided by a Kr/Ar mixed gas laser at wavelengths of 543 nm for AO and 488 nm for EtBr. Slides were analyzed under 40× magnification and digital images were stored as uncompressed TIFF files and exported into Photoshop CS software (Adobe Systems) for image processing and hard copy presentation. […]

Assay [5] deals with PC3. Described as above. As to the method: as §4, §5, §6
Assay [6] relates to DU145. The description is as above. The method, then: as §4, §5, §6

In the case of “DEFB1: human beta defensin-1 expressed from the ecdysone inducible pIND/DEFB1 construct, induced with Ponasterone A (DHYNCVSSGGQCLYSACPIFTKIQGTCYRGKAKCCK; UniProt P60022 33-68, looked up)”, the cell proliferation entry with LNCaP [1] is listed as “no effect on cell proliferation”. Also, the cell number result in the assay on PC3 [2] and with DU145 [3] was “significant reduction in cell number” throughout. The “membrane integrity (AO/EtBr staining)” value with LNCaP [4] was “no observable alterations to membrane integrity”; with PC3 [5] (PC3, 24 h DEFB1 (hBD-1) induction), “accumulation of EtBr in the cytoplasm”; in the assay on PC3 [5] (PC3, 48 h DEFB1 (hBD-1) induction) it was “condensed nuclei and appeared yellow”; in the assay on DU145 [6] (DU145, 24 h DEFB1 (hBD-1) induction) it was “accumulation of EtBr in the cytoplasm”; in the assay with DU145 [6] (DU145, 48 h DEFB1 (hBD-1) induction), “condensed nuclei and appeared yellow”.
